{"source": "patent US20250064773A1", "about": "“TARGETING ERO1 ALPHA WITH AURONE DERIVATIVES” (West Virginia University Board of Governors on behalf of …, priority 2021, published 2025)", "key": {"[1]": {"target": "T1, purified human ERO1α (Homo sapiens, UniProt Q96HE7, C104A/C131A/C166A)", "T1 construct": "made in house", "T1 sequence (Q96HE7 22-468 C104A/C131A/C166A)": "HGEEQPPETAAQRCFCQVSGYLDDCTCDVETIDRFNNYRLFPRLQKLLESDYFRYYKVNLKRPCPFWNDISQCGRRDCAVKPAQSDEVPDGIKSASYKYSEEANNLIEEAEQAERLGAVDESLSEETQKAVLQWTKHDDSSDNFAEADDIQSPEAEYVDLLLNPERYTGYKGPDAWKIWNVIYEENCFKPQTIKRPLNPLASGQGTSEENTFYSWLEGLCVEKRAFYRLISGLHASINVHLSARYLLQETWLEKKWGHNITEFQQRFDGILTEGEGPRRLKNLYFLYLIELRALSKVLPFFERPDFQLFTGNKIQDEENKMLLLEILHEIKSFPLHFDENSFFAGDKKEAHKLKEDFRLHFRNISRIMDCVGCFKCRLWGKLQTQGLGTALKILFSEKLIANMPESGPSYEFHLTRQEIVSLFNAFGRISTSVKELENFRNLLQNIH", "assay": "Recombinant ERO1α enzyme assay (Amplex Red)", "type": "biochemical", "conditions": "for inhibition at 10 µM: average of N = 3 ± S.D., read-out: % inhibition (10 μM) of ERO1α enzyme activity compared to vehicle control", "experimental": "Based on previous work which established an aurone chemical class of compounds as FAD containing enzyme inhibitors^37, we evaluated sulfuretin analogs for ERO1α enzyme inhibition.\nQuantification of enzymatic activity of ERO1α was performed using the Amplex Red as previously described^6."}, "[2]": {"test_system": "PC-9 non-small cell lung cancer cell line", "assay": "MTT viability assay, PC-9", "type": "cell-based", "conditions": "72 h, read-out: IC50, MTT assay, PC-9", "experimental": "(§1) We utilized an MTT assay to determine the potency of the compounds for inhibiting cell growth. […] We next asked whether T151742 induced inhibition of cell growth was dependent on ERO1α expression. As shown in FIG. 6C two ERO1α deleted clones in the PC-9 cell line were isolated. Using an MTT assay to determine overall cellar viability, a non-targeted control (scramble), and both ERO1α knockout clones was subjected to treatment with T151742 for 72 hours (See FIG. 6D). […] Though only slight differences were observed between T151742 and EN-460 we tested the effects of these compounds in a clonogenic assay which is a better test for inhibition of self-renewal.\nCell Lines: PC-9 cell line used was obtained from Sigma Aldrich and grown in RPMI 1640 medium with 10% fetal bovine serum and 1% penicillin/streptomycin. HCC4006, U266, MM1.s, and Beas-2B cell lines were obtained from ATCC and cultured in either RPMI 1640 or DMEM with 10% fetal bovine serum and 1% penicillin/streptomycin. All cell lines were also checked for mycoplasma every six months and subjected to short tandem repeat (STR) analysis for cell line validation. CRISPR Cas9: CRISPR Guide RNA 2 targeting ERO1α and CRISPR Guide RNA 4 were purchased from Genscript in the pLentiCRISPR V2 plasmid containing puromycin/ampicillin selection marker. Lentivirus was made from HEK 293T cells by co-transfection with GuideRNA of interest, pVSVG, and pPAX2 plasmids. Lentivirus was collected after 48 hours and concentrated using 40% PEG8000. […] Plate was then read on the BioTek Cytation 5 at 530/590 nm. […] Plate was then read at 570 nm. Treated wells were all compared to DMSO control wells to calculate percent growth inhibition and the IC50 was calculated using GraphPad (log(inhibitor) vs growth inhibition). […] Images were then quantified using ImageJ. […] Cells were aliquoted at 1 million cells per PCR tube in PBS and heated in Bio-Rad T100 thermal cycler at indicated temperatures (RT, 46° C., 48° C., 50° C., 52° C., 54° C., 56°, 58° C., and 60° C.) for 3 minutes and aggregation temperature was determined by western blot analysis. […]"}, "[3]": {"target": "T2, MAO-B (Homo sapiens, UniProt P27338)", "T2 sequence (P27338 1-520)": "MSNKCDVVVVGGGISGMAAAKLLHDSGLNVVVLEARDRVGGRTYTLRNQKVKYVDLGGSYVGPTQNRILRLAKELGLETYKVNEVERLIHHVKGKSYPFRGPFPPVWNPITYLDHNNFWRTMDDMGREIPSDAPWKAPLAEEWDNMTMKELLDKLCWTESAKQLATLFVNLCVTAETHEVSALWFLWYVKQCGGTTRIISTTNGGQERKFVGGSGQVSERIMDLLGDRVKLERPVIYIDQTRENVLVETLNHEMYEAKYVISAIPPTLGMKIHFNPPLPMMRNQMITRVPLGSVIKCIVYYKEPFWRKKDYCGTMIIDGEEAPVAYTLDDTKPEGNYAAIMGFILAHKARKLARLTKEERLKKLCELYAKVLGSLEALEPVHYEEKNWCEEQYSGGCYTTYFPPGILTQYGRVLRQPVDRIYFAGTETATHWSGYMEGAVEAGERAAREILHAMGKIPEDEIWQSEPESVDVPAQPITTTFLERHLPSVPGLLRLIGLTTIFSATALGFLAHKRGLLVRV", "conditions": "cited from earlier work"}, "[4]": {"test_system": "PC-9 cells", "assay": "Soft agar clonogenic assay, PC-9", "type": "cell-based", "conditions": "14 days, 3.75-15 μM", "experimental": "as §1\nFIG. 7A and FIG. 7B show 1000 cells/well were plated in a 12-well plate in triplicate with either 0.5% DMSO, T151742, or EN-460 and allowed to form colonies for 14 days. Colonies were subsequently stained with 0.01% Crystal Violet, imaged, and quantified using ImageJ. […] Colonies were stained with 0.01% Crystal Violet, imaged, and quantified using ImageJ.\nCell Lines: PC-9 cell line used was obtained from Sigma Aldrich and grown in RPMI 1640 medium with 10% fetal bovine serum and 1% penicillin/streptomycin. […] Plate was then read on the BioTek Cytation 5 at 530/590 nm. […] Plate was then read at 570 nm. […] Images were then quantified using ImageJ. […]"}, "[5]": {"target": "T3, MAO-A (Homo sapiens, UniProt P21397)", "T3 sequence (P21397 1-527)": "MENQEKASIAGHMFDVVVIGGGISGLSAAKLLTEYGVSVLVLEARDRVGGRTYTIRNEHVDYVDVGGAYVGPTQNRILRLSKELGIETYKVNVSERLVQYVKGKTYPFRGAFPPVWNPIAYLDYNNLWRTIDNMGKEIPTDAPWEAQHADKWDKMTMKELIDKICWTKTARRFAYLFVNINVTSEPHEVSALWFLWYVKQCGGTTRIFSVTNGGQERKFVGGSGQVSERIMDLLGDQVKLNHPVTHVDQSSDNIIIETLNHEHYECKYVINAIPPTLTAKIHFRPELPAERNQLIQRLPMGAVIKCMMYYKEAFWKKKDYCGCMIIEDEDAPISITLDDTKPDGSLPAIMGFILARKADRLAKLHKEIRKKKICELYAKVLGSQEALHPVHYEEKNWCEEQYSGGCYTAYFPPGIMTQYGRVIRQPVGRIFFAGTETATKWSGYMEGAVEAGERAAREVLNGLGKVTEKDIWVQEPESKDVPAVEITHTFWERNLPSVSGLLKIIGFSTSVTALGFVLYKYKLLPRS", "conditions": "cited from earlier work"}, "[6]": {"target": "LSD-1 (Homo sapiens, UniProt O60341)", "conditions": "cited from earlier work"}}}
{"smiles": "N[C@@H]1C[C@H]1c1ccccc1", "note": "(racemic) [tranylcypromine, reference compound]", "values": [{"measurement": "inhibition of ERO1α activity (concentration response, FIG. 8)", "setting": "[1]; covalent modifiers of FAD", "result": "did not inhibit"}]}
{"smiles": "O=C(O)c1ccc(/C=C2\\Oc3cc(O)ccc3C2=O)cc1", "note": "[SR-F-114]", "values": [{"measurement": "IC50", "setting": "[2]", "result": "32.4 ± 6.01", "unit": "µM"}]}
{"smiles": "O=C1/C(=C/c2ccc(-c3ccccc3)cc2)Oc2cc(O)ccc21", "note": "[SR-F-126]", "values": [{"measurement": "inhibition at 10 µM", "setting": "[1]", "result": "38.7 ± 1.56", "unit": "%"}]}
{"smiles": "O=C(O)c1cc(N2N=C(C(F)(F)F)/C(=C/c3ccc(-c4ccccc4)o3)C2=O)ccc1Cl", "note": "[EN-460, reference compound]", "values": [{"measurement": "inhibition of / activity against MAO-B", "setting": "[3]", "result": "inhibits"}, {"measurement": "activity in clonogenicity assay (colony number)", "setting": "[4]", "result": "devoid of activity"}, {"measurement": "inhibition of / activity against MAO-A", "setting": "[5]", "result": "inhibits"}, {"measurement": "IC50", "setting": "[1]; purified human ERO1α 0.0625 mg/mL, PDI 0.0625 mg/mL, mean ± S.D., N=3", "result": "16.5 ± 3.47", "unit": "µM"}, {"measurement": "inhibition of LSD-1", "setting": "[6]", "result": "inhibits"}]}
{"smiles": "O=C1/C(=C/c2c(F)cccc2Cl)Oc2cc(O)ccc21", "note": "[SR-F-125]", "values": [{"measurement": "inhibition at 10 µM", "setting": "[1]", "result": "20.7 ± 4.92", "unit": "%"}]}
